We go through 37 molecules from US9758492B2, “IDO inhibitors” (Bristol-Myers Squibb Company, priority 2013, dated 2017).

Molecules are shown by their SMILES.

The assay has as its target T1, Human IDO1 (Homo sapiens, UniProt P14902).
T1 construct: expressed in transfected cells; host or cells: HEK293
The experiment in a line: IDO Kynurenine Assay with Human IDO1/HEK293 Cells. In kind it is cell-based. To be noted: read-out: HEK human IDO-1 (IC50). The protocol:
IDO Kynurenine Assay with Human IDO1/HEK293 Cells
Human IDO1/HEK293 cells were seeded at 10,000 cells per 50 uL per well with RPMI/phenol red free media contains 10% FBS in a 384-well black wall clear bottom tissue culture plate (Matrix Technologies LLC) 125 nL of certain concentration of compound was then added to each well using ECHO liquid handling systems. The cells were incubated for 20 hours in 37° C. incubator with 5% CO2.
The compound treatments were stopped by adding Trichloroacetic Acid (Sigma-Aldrich) to a final concentration at 0.2%. The cell plate was further incubated at 50° C. for 30 minute. The equal volume supernatant (20 uL) and 0.2% (w/v) Ehrlich reagent (4-dimethylaminobenzaldehyde, Sigma-Aldrich) in glacial acetic acid were mixed in a new clear bottom 384-well plate. This plate was then incubated at room temperature for 30 minute. The absorbance at 490 nm was measured on Envision plate reader.
Compound IC50 values were calculated using the counts of 500 nM of a reference standard treatment as one hundred percent inhibition, and counts of no compound but DMSO treatment as zero percent inhibition.

T1 sequence (P14902 whole entry): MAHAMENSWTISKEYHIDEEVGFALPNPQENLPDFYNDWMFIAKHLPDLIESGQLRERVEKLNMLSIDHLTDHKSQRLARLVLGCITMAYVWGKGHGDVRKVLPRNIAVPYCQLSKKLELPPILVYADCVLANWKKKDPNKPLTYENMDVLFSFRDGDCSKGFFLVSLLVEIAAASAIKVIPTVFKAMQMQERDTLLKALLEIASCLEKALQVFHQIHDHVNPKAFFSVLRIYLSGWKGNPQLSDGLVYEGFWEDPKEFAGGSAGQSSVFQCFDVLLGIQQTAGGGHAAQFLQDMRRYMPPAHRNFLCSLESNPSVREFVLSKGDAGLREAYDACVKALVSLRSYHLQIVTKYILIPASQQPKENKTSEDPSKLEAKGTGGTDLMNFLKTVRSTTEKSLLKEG

Regarding `CC(C)CN(c1ccc(-c2cc(F)ccc2C(=O)O)cc1NC(=O)Nc1ccc2nccn2c1)C1CCCCC1` [Example 407], the IC50 (as a rule, the concentration that inhibits the measured activity by half) is 3110 nM.

For the molecule `CC(C)CN(CC(C)C)c1ccc(-c2cccc(OC(F)(F)F)c2C(=O)O)cc1NC(=O)Nc1ccc(C#N)nc1` [Example 501], the IC50 is 320 nM.

Consider `Cc1ccc(NC(=O)Nc2cc(-c3cc(F)ccc3C(=O)O)ccc2N(CC(C)C)C2CCC(C(F)(F)F)CC2)cc1` (stereo not shown) [Example 306, 5-fluoro-4′-(isobutyl(4-(trifluoromethyl)cyclohexyl)amino)-3′-(3-(p-tolyl)ureido)-[1,1′-biphenyl]-2-carboxylic acid], for which the IC50 came to 40 nM.

Turning to `CC(C)CN(CC(C)C)c1ccc(-c2cccc(OC(F)(F)F)c2C(=O)O)cc1NC(=O)Nc1ccc(Cl)cc1F` [Example 496], the IC50 stood at 10 nM.

Consider `CC(C)CN(c1ccc(-c2cc(F)ccc2C(=O)O)cc1NC(=O)Nc1cncnc1)C1CCCCC1` [Example 397], for which the IC50 amounted to 10 nM.

With `CCC(CC)N(CC(C)C)c1ccc(-c2ccccc2C(=O)O)cc1NC(=O)Nc1ccc(Cl)cc1F` [Example 440], the IC50 worked out at 1.55 nM.

On to `CCOc1ccc(NC(=O)Nc2cc(-c3cc(F)ccc3C(=O)O)c(F)cc2N(CC(C)C)C2CCC(F)(F)CC2)cc1` [Example 540], for which the IC50 stood at 10 nM.

Consider `CC(C)CN(CC(C)C)c1ccc(-c2ccccc2-c2nnn[nH]2)cc1NC(=O)Nc1ccc2c(c1)CCC2` [Example 458], for which the concentration for half-maximal inhibition (IC50) stood at 140 nM.

Take `COCCN(c1ccc(-c2ccccc2-c2nnn[nH]2)cc1NC(=O)Nc1ccc(Cl)cc1F)C1CCCCC1` [Example 452]: the IC50 stood at 0.661 nM.

With `Cc1cc(NC(=O)Nc2cc(-c3cc(F)ccc3C(=O)O)c(F)cc2N(CC(C)C)C2CCC(F)(F)CC2)on1` [Example 521, 4′-((4,4-Difluorocyclohexyl)(isobutyl)amino)-2′,5-difluoro-5′-(3-(3-methylisoxazol-5-yl)ureido)-[1,1′-biphenyl]-2-carboxylic acid], the IC50 came to 8.44 nM.

For `CC(C)CN(CC(C)C)c1ccc(-c2ccccc2-c2nnn[nH]2)cc1NC(=O)Nc1ccc(C#N)nc1` [Example 489], the IC50 worked out at 220 nM.

In the case of `CCOc1ccc(NC(=O)Nc2cc(-c3cccc(C)c3C(=O)O)ccc2N(CC(C)C)CC(C)C)cc1` [Example 545], the concentration for half-maximal inhibition (IC50) stood at 60 nM.

`COCCN(c1ccc(-c2ccccc2C(=O)O)cc1NC(=O)Nc1ccc(Cl)cc1F)C1CCCCC1` [Example 456]: the IC50 is 0.863 nM.

Consider `CCOc1ccc(NC(=O)Nc2cc(-c3cc(C)ccc3C(=O)O)ccc2N(CC(C)C)CC(C)C)cc1` [Example 529, 4′-(Diisobutylamino)-3′-(3-(4-ethoxyphenyl)ureido)-5-methyl-[1,1′-biphenyl]-2-carboxylic acid], for which the IC50 came to 390 nM.

For `[2H]C([2H])(C(C)C)N(c1ccc(-c2ccccc2C(=O)O)cc1NC(=O)Nc1ccc(C)cc1)C([2H])([2H])C(C)C` [Example 478], the IC50 was determined as 10 nM.

Consider `CCOc1ccc(NC(=O)Nc2cc(-c3cc(F)ccc3C(=O)O)ccc2N(C2CC2)C2CC2)cc1` [Example 543], for which the IC50 came out at 7240 nM.

As for `CC(C)CN(CC(C)C)c1ccc(-c2ccccc2-c2nnn[nH]2)cc1NC(=O)Nc1cncnc1` [Example 391], the IC50 is 280 nM.

Take `CC(C)CN(c1cc(F)c(-c2cc(F)ccc2C(=O)O)cc1NC(=O)Nc1cc(C(F)(F)F)no1)C1CCCCC1` [Example 393]: the IC50 turned out to be 2.07 nM.

On to `CC(C)CN(CC(C)C)c1ccc(-c2ccc(Cl)cc2C(=O)O)cc1NC(=O)Nc1ccc(C#N)nc1` [Example 359, 4-Chloro-3′-(3-(6-cyanopyridin-3-yl)ureido)-4′-(diisobutylamino)-[1,1′-biphenyl]-2-carboxylic acid], for which the IC50 was 550 nM.

With `Cc1cc(NC(=O)Nc2cc(-c3cc(F)ccc3C(=O)O)c(F)cc2N(CC(C)C)[C@@H]2C[C@H]3CC[C@@H]2C3)no1` [Example 385], the IC50 is 200 nM.

Consider `COCCN(c1ccc(-c2cc(F)ccc2C(=O)O)cc1NC(=O)Nc1ccc(Cl)cc1F)C1CCCCC1` [Example 451], for which the IC50 worked out at 1.74 nM.

Turning to `COC[C@H](C)N(CCCC(F)(F)F)c1ccc(-c2ccccc2-c2nnn[nH]2)cc1NC(=O)Nc1ccc(C)cc1` [Example 423], the IC50 worked out at 20 nM.

As to `CC(C)CN(c1cc(F)c(-c2cc(F)ccc2C(=O)O)cc1NC(=O)Nc1ccc(C(F)(F)F)cc1F)C1CCCCC1` [Example 392], the IC50 was 10 nM.

On to `Cc1ccc(NC(=O)Nc2cc(-c3ccccc3-c3nnn[nH]3)ccc2N(CCOC(C)C)CC(C)C)cc1` [Example 465], for which the IC50 was 200 nM.

Consider `Cc1ccc(NC(=O)Nc2cc(-c3ccccc3-c3nnn[nH]3)ccc2N(CC(C)C)[C@H]2CC[C@@H](C(F)(F)F)CC2)cc1` [Example 305, 1-(4-(isobutyl(4-(trifluoromethyl)cyclohexyl)amino)-2′-(1H-tetrazol-5-yl)-[1,1′-biphenyl]-3-yl)-3-(p-tolyl) urea], for which the IC50 turned out to be 6 nM.

For the molecule `Cc1ccc(NC(=O)Nc2cc(-c3cc(Cl)ccc3C(=O)O)ccc2N(CC(C)C)CC(C)C)cc1` [Example 493], the IC50 was 120 nM.

With `CC(C)CN(c1cc(F)c(-c2cc(F)ccc2C(=O)O)cc1NC(=O)Nc1cncnc1)C1CCCCC1` [Example 486], the IC50 is 30 nM.

Turning to `Cc1cnc(NC(=O)Nc2cc(-c3cc(F)ccc3C(=O)O)c(F)cc2N(CC(C)C)C2CCCCC2)cn1` [Example 525, 4′-(Cyclohexyl(isobutyl)amino)-2′,5-difluoro-5′-(3-(5-methylpyrazin-2-yl)ureido)-[1,1′-biphenyl]-2-carboxylic acid], the IC50 is 90 nM.

Regarding `CCC(CC)N(CC(C)C)c1ccc(-c2cc(F)ccc2C(=O)O)cc1NC(=O)Nc1ccc(C)cc1` [Example 439], the IC50 is 10 nM.

Turning to `CC(C)CN(CC(C)C)c1ccc(-c2ccccc2-c2nnn[nH]2)cc1NC(=O)NC1CCCC1` [Example 464], the IC50 stood at 790 nM.

For `CCOc1ccc(NC(=O)Nc2cc(-c3ccccc3-c3nnn[nH]3)ccc2N(C2CC2)C2CC2)cc1` [Example 544], the IC50 was determined as 1740 nM.

In the case of `CC(C)CN(CC(C)C)c1ccc(-c2ccccc2-c2nnn[nH]2)cc1NC(=O)Nc1ccc(C(C)C)cc1` [Example 455], the IC50 came out at 510 nM.

In the case of `Cc1ccc(NC(=O)Nc2cc(-c3ccccc3-c3nnn[nH]3)ccc2N(CC(C)C)CC(C)C)cn1` [Example 395], the IC50 came out at 70 nM.

Turning to `Cc1ccc(NC(=O)Nc2cc(-c3ccccc3C(=O)O)ccc2N(CC(C)C)C2CCC(C(F)(F)F)CC2)cc1` (stereo not shown) [Example 307, 4′-(isobutyl(4-(trifluoromethyl)cyclohexyl)amino)-3′-(3-(p-tolyl)ureido)-[1,1′-biphenyl]-2-carboxylic acid], the IC50 was 40 nM.

Regarding `CC(C)CN(c1cc(F)c(-c2ccccc2-c2nnn[nH]2)cc1NC(=O)Nc1ccccc1F)C1CCC(F)(F)CC1` [Example 537, 1-(4-((4,4-Difluorocyclohexyl)(isobutyl)amino)-6-fluoro-2′-(1H-tetrazol-5-yl)-[1,1′-biphenyl]-3-yl)-3-(2-fluorophenyl)urea], the IC50 turned out to be 6.08 nM.

With `Cc1ccc(NC(=O)Nc2cc(-c3cccc(C)c3C(=O)O)ccc2N(CC(C)C)CC(C)C)cc1` [Example 536, 4′-(Diisobutylamino)-3-methyl-3′-(3-(p-tolyl)ureido)-[1,1′-biphenyl]-2-carboxylic acid], the IC50 was 70 nM.

`COC(C)(C)CCN(CCCC(F)(F)F)c1ccc(-c2ccccc2C(=O)O)cc1NC(=O)Nc1ccc(C)cc1` [Example 422]: the IC50 was found to be 1480 nM.
